# According to US12514852B2 (CINDOME PHARMA, INC., priority 2018, dated 2026):
# What was measured:
# [1] = test system: beagle dogs; assay: Dog cardiovascular study, QTc, d4-domperidone capsules (Example 3); type: in vivo; conditions: male dogs; for QTc Percent Change Segment 1 (0-6 hours) / QTc Percent Change Segment 2 (7-24 hours) / QTc change Segment 1 (0-6 hours) / QTc change Segment 2 (7-24 hours): vs time-matched control; for Duration of Effect (hours post dose): QTc
# Procedure: Oral suspensions were administered via gavage for comparison purposes. […]
# One animal/treatment was dosed each week with at least a 3-day washout period between administrations until each animal received all treatments. See, Table 5. The same 5 animals received all treatments according to a Latin square design with at least a 3-day washout between treatments. Body temperature, blood pressure, heart rate, and the electrocardiogram (ECG) were monitored continuously for at least 2 hours prior to dosing and for at least 24 hours post dose.
# Three days prior to the study, the animals were continuously monitored for at least 24 hours for body temperature and cardiovascular endpoints while on the stock colony (10 days prior to the first administration). […] The first 24 hours of the data were used in the calculation of the QTc interval. Body temperature, blood pressure, heart rate (derived from blood pressure and ECG), and the ECG were monitored continuously from at least 2 hours predose until at least 24 hours post dose. Data were collected and analyzed in 1-minute intervals and are reported in 15-minute intervals. The QTc interval was calculated using a procedure based on the method described by Spence (“The heart rate corrected QT interval of conscious beagle dogs: a formula based on analysis of covariance,” Toxicol Sci, 1998; 45:247 258) and modified by Miyazaki and Tagawa (“Rate-correction technique for QT interval in long term telemetry ECG recording in beagle dogs,” Exp. Anim., 2002; 51:465 475). Blood samples (approximately 1 mL) were collected via jugular vein and 8 and 24 hours post dose to confirm exposure.
# Table 6 indicates the change (% and ms) from the appropriate time-matched control for each d4-domperidone treatment.
# [2] = in vivo; conditions: male, Beagle, dog, plasma, po, 1 mg/kg
# [3] = test system: beagle dogs; assay: Dog cardiovascular study, QTc, non-deuterated domperidone by gavage (Example 3); type: in vivo; conditions: for QTc Maximum % Change / Time of QTc Maximum % Change / QTc Percent Change Segment 1 (0-6 hours) / QTc Percent Change Segment 2 (7-24 hours) / QTc change Segment 1 (0-6 hours) / QTc change Segment 2 (7-24 hours) / QTcVdW increase (Van de Water formula) / Duration of Effect (hours post dose): beagle dogs; for QTc Percent Change Segment 1 (0-6 hours) / QTc Percent Change Segment 2 (7-24 hours) / QTc change Segment 1 (0-6 hours) / QTc change Segment 2 (7-24 hours): vs time-matched control; for Duration of Effect (hours post dose): QTc
# Procedure: Oral suspensions were administered via gavage for comparison purposes.
# USP. The d4-domperidone formulation was Formulation A, Example 1. […] One animal/treatment was dosed each week with at least a 2-day washout period between administrations until each animal received all treatments. The same 4 animals received treatments according to a Latin square design. Systolic blood pressure, diastolic blood pressure, heart rate and Lead II electrocardiogram were continuously recorded. The measurements started 1.5 hrs prior to the dose administration and all parameters were continuously recorded 24 hrs following the end of dosing of the last animal.
# The individual animal correction (QTcVdW) was calculated using Van de Water formula.
structure (smiles),measurement,setting,value
"[2H]c1c([2H])c([2H])c2c([nH]c(=O)n2CCCN2CCC(n3c(=O)[nH]c4cc(Cl)ccc43)CC2)c1[2H] [d4-domperidone, 1-{3-[4-(5-chloro-2-oxo-2,3-dihydro-1H-1,3-benzodiazol-1-yl)piperidin-1yl]propyl}-2,3-dihydro(4,5,6,7-D4)-1H-1,3-benzodiazol-2-one]",QTc Maximum % Change,[1]; 20 mg capsule,4%
same,Time of QTc Maximum % Change,[1]; 20 mg capsule,3.5 h
same,QTc Percent Change Segment 1 (0-6 hours),[1]; 20 mg capsule,+1%
same,QTc Percent Change Segment 2 (7-24 hours),[1]; 20 mg capsule,+0%
same,QTc change Segment 1 (0-6 hours),[1]; 20 mg capsule,3 ms
same,QTc change Segment 2 (7-24 hours),[1]; 20 mg capsule,1 ms
same,Time of QTc Maximum % Change,[1]; 110 mg capsule,5 h
same,QTc Percent Change Segment 1 (0-6 hours),[1]; 110 mg capsule,+5%
same,QTc Percent Change Segment 2 (7-24 hours),[1]; 110 mg capsule,+1%
same,QTc change Segment 1 (0-6 hours),[1]; 110 mg capsule,12 ms
same,QTc change Segment 2 (7-24 hours),[1]; 110 mg capsule,2 ms
same,QTc Maximum % Change,"[1]; 110 mg capsule, statistically significant",10%
same,Time of QTc Maximum % Change,[1]; 385 mg capsule,6 h
same,QTc Percent Change Segment 1 (0-6 hours),[1]; 385 mg capsule,+8%
same,QTc Percent Change Segment 2 (7-24 hours),[1]; 385 mg capsule,+6%
same,QTc change Segment 1 (0-6 hours),[1]; 385 mg capsule,17 ms
same,QTc change Segment 2 (7-24 hours),[1]; 385 mg capsule,13 ms
same,QTc Maximum % Change,"[1]; 385 mg capsule, statistically significant",13%
same,Duration of Effect (hours post dose),[1]; 20 mg capsule,1.5-12 hours post dose
same,Duration of Effect (hours post dose),[1]; 110 mg capsule,0.5-12 hours post dose
"O=c1[nH]c2ccccc2n1CCCN1CCC(n2c(=O)[nH]c3cc(Cl)ccc32)CC1 [domperidone, 5-chloro-1-(1-[3-(2-oxo-2,3-dihydro-1H-benzo[d]imidazol-1-yl)propyl]piperidin-4-yl)-1H-benzo[d]imidazol-2(3H)-one]",MRT last,[2],5 h
same,QTc Maximum % Change,[3]; 1 mg/kg gavage,6%
same,Time of QTc Maximum % Change,[3]; 1 mg/kg gavage,2 h
same,QTc Percent Change Segment 1 (0-6 hours),[3]; 1 mg/kg gavage,+6%
same,QTc Percent Change Segment 2 (7-24 hours),[3]; 1 mg/kg gavage,+2%
same,QTc change Segment 1 (0-6 hours),[3]; 1 mg/kg gavage,13 ms
same,QTc change Segment 2 (7-24 hours),[3]; 1 mg/kg gavage,4 ms
same,Time of QTc Maximum % Change,[3]; 5 mg/kg gavage,2 h
same,QTc Percent Change Segment 1 (0-6 hours),[3]; 5 mg/kg gavage,+11%
same,QTc Percent Change Segment 2 (7-24 hours),[3]; 5 mg/kg gavage,+7%
same,QTc change Segment 1 (0-6 hours),[3]; 5 mg/kg gavage,23 ms
same,QTc change Segment 2 (7-24 hours),[3]; 5 mg/kg gavage,15 ms
same,QTc Maximum % Change,"[3]; 5 mg/kg gavage, statistically significant",11%
same,QTcVdW increase (Van de Water formula),[3]; 5 mg/kg,up to 23 msec
same,Time of QTc Maximum % Change,[3]; 20 mg/kg gavage,2 h
same,QTc Percent Change Segment 1 (0-6 hours),[3]; 20 mg/kg gavage,+10%
same,QTc Percent Change Segment 2 (7-24 hours),[3]; 20 mg/kg gavage,+7%
same,QTc change Segment 1 (0-6 hours),[3]; 20 mg/kg gavage,21 ms
same,QTc change Segment 2 (7-24 hours),[3]; 20 mg/kg gavage,16 ms
same,QTc Maximum % Change,"[3]; 20 mg/kg gavage, statistically significant",10%
same,QTcVdW increase (Van de Water formula),[3]; 20 mg/kg,≤ 21 ms
same,"effect on QTc change, lower doses of non-deuterated formulation compared to higher doses of deuterated formulation","[3]; FIGS. 9 and 10, beagle dogs, in words",greater effect on QTc change
same,Duration of Effect (hours post dose),[3]; 1 mg/kg gavage,1-2 hours post dose
same,Duration of Effect (hours post dose),[3]; 5 mg/kg gavage,0.5-6 hours post dose
same,Duration of Effect (hours post dose),[3]; 20 mg/kg gavage,0.5-4 hours post dose
